From patent US20250049970A1, “DLL3 TARGETING PEPTIDES AND CONSTRUCTS THEREOF” (MARIANA ONCOLOGY INC., priority 2023, published 2025)
*1 amine or outer side, *2 acyl side, *3 side chain or, on linkers, in order; H or OH if unused. Where a SMILES comes first, the peptide text is derived from it. Bridges are numbered along the chain shown (N, C = ends). [ ]: non-standard residue; d: D form. The star is where a group is joined. ξ: configuration not given here. Ala(piperidin-4-yl) = O=C([C@H](CC1CCN([*:3])CC1)N[*:1])[*:2]; DOTA = O=C(O)CN1CCN(CC(=O)O)CCN(CC(=O)*)CCN(CC(=O)O)CC1; Bip = N[C@@H](Cc1ccc(-c2ccccc2)cc1)C(=O)O; 2Nal = N[C@@H](Cc1ccc2ccccc2c1)C(=O)O; Gly(4-THP) = N[C@H](C(=O)O)C1CCOCC1; Nva(3-Et) = CCC(CC)[C@H](N)C(=O)O; Cha = N[C@@H](CC1CCCCC1)C(=O)O; AllylGly = C=CC[C@H](N)C(=O)O; Cba = N[C@@H](CC1CCC1)C(=O)O; Tle = CC(C)(C)[C@H](N)C(=O)O; Nle = CCCC[C@H](N)C(=O)O; Aze = O=C(O)[C@@H]1CCN1; CH2 = C([*:1])[*:2]; ξC = NC(CS)C(=O)O; Sar = CNCC(=O)O

Target: T1, DLL3 (Homo sapiens, UniProt Q9NYJ7)
T1 sequence (Q9NYJ7 27-618): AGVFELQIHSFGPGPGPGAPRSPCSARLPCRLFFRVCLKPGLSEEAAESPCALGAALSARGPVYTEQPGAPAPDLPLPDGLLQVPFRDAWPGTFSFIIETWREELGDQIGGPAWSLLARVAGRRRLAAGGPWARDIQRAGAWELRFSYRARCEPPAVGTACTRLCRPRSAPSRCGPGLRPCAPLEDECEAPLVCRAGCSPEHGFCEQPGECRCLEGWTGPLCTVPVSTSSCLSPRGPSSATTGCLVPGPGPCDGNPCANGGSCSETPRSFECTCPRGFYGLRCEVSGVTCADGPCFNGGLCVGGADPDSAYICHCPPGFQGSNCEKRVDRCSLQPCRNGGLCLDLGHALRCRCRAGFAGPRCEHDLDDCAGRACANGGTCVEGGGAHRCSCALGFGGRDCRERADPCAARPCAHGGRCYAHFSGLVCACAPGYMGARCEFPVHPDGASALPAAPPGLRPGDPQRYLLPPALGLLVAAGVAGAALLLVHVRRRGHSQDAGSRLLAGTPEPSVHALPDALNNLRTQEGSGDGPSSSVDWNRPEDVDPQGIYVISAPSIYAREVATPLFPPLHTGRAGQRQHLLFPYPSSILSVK
Assay: SPR KD, biotinylated human DLL3 on streptavidin chip (Table 8)
Set-up: biotin (biotinylated)
Conditions: biotinylated human DLL3 on streptavidin sensor chip, 25° C., 1:1 binding model; read-out: SPR KD
Excerpt: Biotinylated target ligand human DLL3 was immobilized on a streptavidin sensor chip. A reference surface was set up for nonspecific binding and refractive index changes. […] Sensorgram curves were fitted with 1:1 binding model, and affinity and kinetic parameters were obtained using Biacore Insight evaluation 4.0. software.

| Kd | Structure (SMILES) |
| --- | --- |
| < 1 nM | CC(=O)N[C@@H](Cc1c[nH]c2ccccc12)C(=O)N[C@H](C(=O)N[C@H](C(=O)N[C@H]1CSSCC(C(=O)N[C@@H](Cc2c[nH]c3ccccc23)C(=O)N2CCC[C@H]2C(N)=O)NC(=O)[C@H]([C@@H](C)O)NC(=O)[C@@H](CCCCNC(=O)CN2CCN(CC(=O)O)CCN(CC(=O)O)CCN(CC(=O)O)CC2)NC(=O)[C@H](Cc2ccc3ccccc3c2)NC(=O)[C@H](CC(N)=O)NC(=O)[C@H](CC2CCNCC2)NC1=O)C1CCOCC1)[C@@H](C)O (stereo partly drawn) [compound 328, Ac-W-T-(THPG)-C(3)-[3-(4-piperidinyl)-Ala]-N-(2Nal)-Lys(DOTA)-(Thr)-C(3)-W-P-CONH2] (Ac-WT[Gly(4-THP)]C[Ala(piperidin-4-yl)]N[2Nal][dK](DOTA)T[ξC]WP-NH2; disulfide 4-10) |
| 100 to 300 nM | CC[C@H](C)[C@H](NC(=O)[C@@H](NC(=O)[C@H](Cc1c[nH]c2ccccc12)NC(C)=O)[C@@H](C)O)C(=O)N[C@H]1CC=CC[C@@H](C(=O)N[C@@H](Cc2c[nH]c3ccccc23)C(=O)N2CCC[C@H]2C(N)=O)NC(=O)[C@H](CC(=O)O)NC(=O)[C@H](Cc2cnc[nH]2)NC(=O)[C@H](Cc2c[nH]c3ccccc23)NC(=O)[C@H](CC(N)=O)NC(=O)[C@H](CC(N)=O)NC1=O [compound 331] (Ac-WTI[AllylGly]NNWHD[AllylGly]WP-NH2; staple 4-10) |
| 100 to 300 nM | CC[C@H](C)[C@H](NC(=O)[C@@H](NC(=O)[C@H](Cc1ccc(-c2ccccc2)cc1)NC(C)=O)[C@@H](C)O)C(=O)N[C@H]1CSSC[C@@H](C(=O)N[C@@H](Cc2c[nH]c3ccccc23)C(=O)N2CCC[C@H]2C(=O)O)NC(=O)[C@H](CC(=O)O)NC(=O)[C@H](Cc2c[nH]cn2)NC(=O)[C@H](Cc2c[nH]c3ccccc23)NC(=O)[C@H](CC(N)=O)NC(=O)[C@H](CC(N)=O)NC1=O [compound 333, Ac-(BIP)-T-I-C(3)-N-N-W-H-D-C(3)-W-P-CONH2] (Ac-[Bip]TICNNWHDCWP-OH; disulfide 4-10) |
| 10 to 100 nM | CC[C@H](C)[C@H](NC(=O)[C@@H](NC(=O)[C@H](Cc1c[nH]c2ccccc12)NC(C)=O)[C@@H](C)O)C(=O)N[C@H]1CSSC[C@@H](C(=O)N[C@@H](Cc2c[nH]c3ccccc23)C(=O)N(C)CC(N)=O)NC(=O)[C@H](CC(=O)O)NC(=O)[C@H](Cc2cnc[nH]2)NC(=O)[C@H](Cc2c[nH]c3ccccc23)NC(=O)[C@H](CC(N)=O)NC(=O)[C@H](CC(N)=O)NC1=O [compound 334, Ac-W-T-I-C(3)-N-N-W-H-D-C(3)-W-(Sar)-CONH2] (Ac-WTICNNWHDCW[Sar]-NH2; disulfide 4-10) |
| 1 to 10 nM | CC[C@H](C)[C@H](NC(=O)[C@@H](NC(=O)[C@H](Cc1c[nH]c2ccccc12)NC(C)=O)[C@@H](C)O)C(=O)N[C@H]1CSSC[C@@H](C(=O)N[C@@H](Cc2c[nH]c3ccccc23)C(=O)N2CC[C@H]2C(N)=O)NC(=O)[C@H](CC(=O)O)NC(=O)[C@H](Cc2cnc[nH]2)NC(=O)[C@H](Cc2c[nH]c3ccccc23)NC(=O)[C@H](CC(N)=O)NC(=O)[C@H](CC(N)=O)NC1=O [compound 335, Ac-W-T-I-C(3)-N-N-W-H-D-C(3)-W-(Aze)-CONH2] (Ac-WTICNNWHDCW[Aze]-NH2; disulfide 4-10) |
| 1 to 10 nM | CC(=O)N[C@@H](Cc1c[nH]c2ccccc12)C(=O)N[C@H](C(=O)N[C@H](C(=O)N[C@H]1CSSC[C@@H](C(=O)N[C@@H](Cc2c[nH]c3ccccc23)C(=O)N2CCC[C@H]2C(N)=O)NC(=O)[C@H](CC(=O)O)NC(=O)[C@H](Cc2cnc[nH]2)NC(=O)[C@H](Cc2c[nH]c3ccccc23)NC(=O)[C@H](CC(N)=O)NC(=O)[C@H](CC(N)=O)NC1=O)C(C)(C)C)[C@@H](C)O [compound 336, Ac-W-T-(Tbg)-C(3)-N-N-W-H-D-C(3)-W-P-CONH2] (Ac-WT[Tle]CNNWHDCWP-NH2; disulfide 4-10) |
| 1 to 10 nM | CCC(CC)[C@H](NC(=O)[C@@H](NC(=O)[C@H](Cc1c[nH]c2ccccc12)NC(C)=O)[C@@H](C)O)C(=O)N[C@H]1CSSC[C@@H](C(=O)N[C@@H](Cc2c[nH]c3ccccc23)C(=O)N2CCC[C@H]2C(N)=O)NC(=O)[C@H](CC(=O)O)NC(=O)[C@H](Cc2cnc[nH]2)NC(=O)[C@H](Cc2c[nH]c3ccccc23)NC(=O)[C@H](CC(N)=O)NC(=O)[C@H](CC(N)=O)NC1=O [compound 337, Ac-W-T-(Env)-C(3)-N-N-W-H-D-C(3)-W-P-CONH2] (Ac-WT[Nva(3-Et)]CNNWHDCWP-NH2; disulfide 4-10) |
| 1 to 10 nM | CC(=O)N[C@@H](Cc1c[nH]c2ccccc12)C(=O)N[C@H](C(=O)N[C@H](C(=O)N[C@H]1CSSC[C@@H](C(=O)N[C@@H](Cc2c[nH]c3ccccc23)C(=O)N2CCC[C@H]2C(N)=O)NC(=O)[C@H](CC(=O)O)NC(=O)[C@H](Cc2cnc[nH]2)NC(=O)[C@H](Cc2c[nH]c3ccccc23)NC(=O)[C@H](CC(N)=O)NC(=O)[C@H](CC(N)=O)NC1=O)C1CCOCC1)[C@@H](C)O [compound 338, Ac-W-T-(THPG)-C(3)-N-N-W-H-D-C(3)-W-P-CONH2] (Ac-WT[Gly(4-THP)]CNNWHDCWP-NH2; disulfide 4-10) |
| 1 to 10 nM | CCCC[C@H](NC(=O)[C@@H](NC(=O)[C@H](Cc1c[nH]c2ccccc12)NC(C)=O)[C@@H](C)O)C(=O)N[C@H]1CSSC[C@@H](C(=O)N[C@@H](Cc2c[nH]c3ccccc23)C(=O)N2CCC[C@H]2C(N)=O)NC(=O)[C@H](CC(=O)O)NC(=O)[C@H](Cc2cnc[nH]2)NC(=O)[C@H](Cc2c[nH]c3ccccc23)NC(=O)[C@H](CC(N)=O)NC(=O)[C@H](CC(N)=O)NC1=O [compound 339, Ac-W-T-(Nle)-C(3)-N-N-W-H-D-C(3)-W-P-CONH2] (Ac-WT[Nle]CNNWHDCWP-NH2; disulfide 4-10) |
| 1 to 10 nM | CC(=O)N[C@@H](Cc1c[nH]c2ccccc12)C(=O)N[C@H](C(=O)N[C@@H](CC1CCCCC1)C(=O)N[C@H]1CSSC[C@@H](C(=O)N[C@@H](Cc2c[nH]c3ccccc23)C(=O)N2CCC[C@H]2C(N)=O)NC(=O)[C@H](CC(=O)O)NC(=O)[C@H](Cc2cnc[nH]2)NC(=O)[C@H](Cc2c[nH]c3ccccc23)NC(=O)[C@H](CC(N)=O)NC(=O)[C@H](CC(N)=O)NC1=O)[C@@H](C)O [compound 340, Ac-W-T-(CHA)-C(3)-N-N-W-H-D-C(3)-W-P-CONH2] (Ac-WT[Cha]CNNWHDCWP-NH2; disulfide 4-10) |
| 1 to 10 nM | CC(=O)N[C@@H](Cc1c[nH]c2ccccc12)C(=O)N[C@H](C(=O)N[C@@H](CC1CCC1)C(=O)N[C@H]1CSSC[C@@H](C(=O)N[C@@H](Cc2c[nH]c3ccccc23)C(=O)N2CCC[C@H]2C(N)=O)NC(=O)[C@H](CC(=O)O)NC(=O)[C@H](Cc2cnc[nH]2)NC(=O)[C@H](Cc2c[nH]c3ccccc23)NC(=O)[C@H](CC(N)=O)NC(=O)[C@H](CC(N)=O)NC1=O)[C@@H](C)O [compound 341, Ac-W-T-(CBA)-C(3)-N-N-W-H-D-C(3)-W-P-CONH2] (Ac-WT[Cba]CNNWHDCWP-NH2; disulfide 4-10) |
| 10 to 100 nM | CC[C@H](C)[C@H](NC(=O)[C@@H](NC(=O)[C@H](Cc1c[nH]c2ccccc12)NC(C)=O)[C@@H](C)O)C(=O)N[C@H]1CSCSC[C@@H](C(=O)N[C@@H](Cc2c[nH]c3ccccc23)C(=O)N2CCC[C@H]2C(N)=O)NC(=O)[C@H](CC(=O)O)NC(=O)[C@H](Cc2cnc[nH]2)NC(=O)[C@H](Cc2c[nH]c3ccccc23)NC(=O)[C@H](CC(N)=O)NC(=O)[C@H](CC(N)=O)NC1=O [compound 343] (Ac-WTICNNWHDCWP-NH2; linker 4-10 via CH2) |
